Counter-ions that a name gives are not always drawn.
Test system: patients who meet the 1990 ACR criteria for fibromyalgia syndrome
Test: Example 2: multicenter, double-blind, randomized, placebo-controlled monotherapy study of milnacipran for treatment of fibromyalgia (1196 patients)
Type: in vivo, human
Parameters: Mean Change from Baseline in PFI SF-36 domain score / Mean Change from Baseline in ROLP SF-36 domain score / Mean Change from Baseline in PAIN SF-36 domain score / Mean Change from Baseline in GHP SF-36 domain score: scale not given here
Conditions: for Composite Pain: number of responders / Composite Syndrome: number of responders / PGIC Component: number of responders / Pain Component: number of responders / SF36 PCS Component: number of responders / Composite Pain: responder rate / Composite Pain: responder rate difference from placebo (unlabelled line) / Composite Syndrome: responder rate / Composite Syndrome: responder rate difference from placebo (unlabelled line) / PGIC Component: responder rate / PGIC Component: responder rate difference from placebo (unlabelled line) / Pain Component: responder rate / Pain Component: responder rate difference from placebo (unlabelled line) / SF36 PCS Component: responder rate / SF36 PCS Component: responder rate difference from placebo (unlabelled line) / Composite Pain: m/n = # of responders/# of patients included / Composite Syndrome: m/n = # of responders/# of patients included / PGIC Component: m/n = # of responders/# of patients included / Pain Component: m/n = # of responders/# of patients included / SF36 PCS Component: m/n = # of responders/# of patients included: 3-months; for time-weighted average (AUC) of SF-36 PCS Scores, Difference from Placebo / time-weighted average (AUC) of SF-36 PCS Scores, LS Mean: Tx3-Tx15, ANCOVA model; for Mean Change from Baseline in GHP SF-36 domain score / Mean Change from Baseline in PAIN SF-36 domain score / Mean Change from Baseline in PCS Score at Tx 15 / Mean Change from Baseline in PFI SF-36 domain score / Mean Change from Baseline in ROLP SF-36 domain score: Tx 15, Observed Cohort; for time-weighted average (AUC) of SF-36 PCS Scores, Mean / time-weighted average (AUC) of SF-36 PCS Scores, Median: Visits Tx3-Tx15, intent to treat
Method: The primary outcome was a composite responder analysis assessing response rates of two doses (100 mg/day and 200 mg/day) of milnacipran as compared with placebo at Visit Tx15 (week 15).
This was a multicenter, randomized, double-blind, placebo-controlled three-arm study designed which enrolled 1196 patients who meet the 1990 ACR criteria for fibromyalgia syndrome (history of widespread pain and pain in 11 of 18 tender point sites on digital palpation), as well as the more detailed admission criteria outlined in the protocol.
Patients were randomized to receive placebo, 100 mg/day milnacipran or 200 mg/day milnacipran in a ratio of 1:1:1 (placebo=401 patients, 100 mg/day=399 patients, 200 mg/day=396 patients). The patients assigned to the two active treatment arms received a total of 12 weeks of stable-dose milnacipran exposure after the 3 weeks of dosage escalation steps, for a total of 15 weeks of drug exposure. All randomized medications (placebo and milnacipran) were administered twice a day (BID).
The primary efficacy assessment of this study was a composite responder status defined by three domains of interest evaluated at visit Tx15. The domains measured were
1) pain (measured by an electronic diary in the morning as a daily recall pain score); 2) patient global (measured by the PGIC, 1-7 scale); 3) physical function (measured by the SF-36 PCS).
The secondary efficacy parameters were time-weighted average (AUC) of the weekly average PED morning recall pain scores for Weeks 4 through 15, PGIC, and SF-36 PCS for Visit Tx3 to Visit Tx15.
The physical function domain for response analysis was measured by the Physical Component Summary of SF-36 (SF-36 PCS). The SF-36 is a brief, well-established, self-administered patient questionnaire for the assessment of health status, functional status, and quality of life. The SF-36 measures eight domains of health status: physical functioning, role limitations due to physical problems, bodily pain, general health perceptions, energy/vitality, social functioning, role limitations due to emotional problems, and mental health. An SF-36 PCS score and a mental component summary (MCS) score can be calculated by combining and weighting the various individual scales. The PCS and MCS scores have been standardized to have a mean=50, SD=10 in the general healthy US population (see, e.g., Ware, J., M. Kosinski, and J. Dewey, How to Score Version 2 of the SF-36 Health Survey (Standard & Acute Forms). 3rd ed. 2000, Lincoln, R.I.: QualityMetric).
A patient was classified as a responder for the treatment of pain of fibromyalgia if he or she reached Visit Tx15 and satisfied the following criteria: • Greater than or equal to 30% in pain reduction from baseline; • PGIC rated as “much or very much improved,” (i.e., a score of 1 or 2 on the 1-7 scale at endpoint.)
A patient was classified as a responder for the treatment of FMS if he or she satisfied the responder criteria for the treatment of pain of fibromyalgia and the following additional criterion (at visit Tx15): • Improvement on the SF-36 PCS score from baseline by an amount at least equivalent to the minimal clinically important difference, as defined in the Statistical Analysis Plan.
Table 6 summarizes 3-month results for the Baseline Observation Carried Forward (BOCF), Last Observation Carried Forward (LOCF) and study completer (OC) populations. LOCF is an analysis in which observations are carried forward to the last time point for patients who dropped out. The LOCF analysis treats the carried-forward data as observed data at the last time point. BOCF is an analysis that requires that the patient remain active in the trial to be evaluated for response. If a patient withdrew from the trial for any reason, they were classified as a non-responder irregardless of their pain and global scores at the time of withdrawal. […]

## CCN(CC)C(=O)C1(c2ccccc2)CC1CN (racemic) [milnacipran, Z-2-aminomethyl-1-phenyl-N,N-diethylcyclopropanecarboxamide hydrochloride]
100 mg (399), BOCF
  Composite Pain: number of responders: 91
  Composite Syndrome: number of responders: 58
  PGIC Component: number of responders: 125
  Pain Component: number of responders: 124
  SF36 PCS Component: number of responders: 108
100 mg (399), LOCF
  Composite Pain: number of responders: 103
  Composite Syndrome: number of responders: 65
  PGIC Component: number of responders: 138
  Pain Component: number of responders: 149
  SF36 PCS Component: number of responders: 129
100 mg or 200 mg
  physical function in patients with fibromyalgia compared to placebo (in words): surprisingly and effectively improves physical function
100 mg, BOCF
  Composite Pain: responder rate: (22.81%)
  Composite Pain: responder rate difference from placebo (unlabelled line): 6.35%
  Composite Syndrome: responder rate: (14.54%)
  Composite Syndrome: responder rate difference from placebo (unlabelled line): 5.81%
  PGIC Component: responder rate: (31.33%)
  PGIC Component: responder rate difference from placebo (unlabelled line): 8.39%
  Pain Component: responder rate: (31.08%)
  Pain Component: responder rate difference from placebo (unlabelled line): 5.89%
  SF36 PCS Component: responder rate: (27.07%)
  SF36 PCS Component: responder rate difference from placebo (unlabelled line): 5.62%
100 mg, LOCF
  Composite Pain: responder rate: (25.81%)
  Composite Pain: responder rate difference from placebo (unlabelled line): 7.61%
  Composite Syndrome: responder rate: (16.29%)
  Composite Syndrome: responder rate difference from placebo (unlabelled line): 6.56%
  PGIC Component: responder rate: (34.59%)
  PGIC Component: responder rate difference from placebo (unlabelled line): 9.65%
  Pain Component: responder rate: (37.34%)
  Pain Component: responder rate difference from placebo (unlabelled line): 8.66%
  SF36 PCS Component: responder rate: (32.33%)
  SF36 PCS Component: responder rate difference from placebo (unlabelled line): 6.89%
  time-weighted average (AUC) of SF-36 PCS Scores, Difference from Placebo: 16.78
  time-weighted average (AUC) of SF-36 PCS Scores, LS Mean: 425.22
  time-weighted average (AUC) of SF-36 PCS Scores, Mean: 423.86
  time-weighted average (AUC) of SF-36 PCS Scores, Median: 418.2
100 mg, OC
  Composite Pain: m/n = # of responders/# of patients included: 91/236
  Composite Pain: responder rate: (38.56%)
  Composite Pain: responder rate difference from placebo (unlabelled line): 13.37%
  Composite Syndrome: m/n = # of responders/# of patients included: 58/236
  Composite Syndrome: responder rate: (24.58%)
  Composite Syndrome: responder rate difference from placebo (unlabelled line): 11.22%
  PGIC Component: m/n = # of responders/# of patients included: 125/263
  PGIC Component: responder rate: (47.53%)
  PGIC Component: responder rate difference from placebo (unlabelled line): 15.70%
  Pain Component: m/n = # of responders/# of patients included: 124/237
  Pain Component: responder rate: (52.32%)
  Pain Component: responder rate difference from placebo (unlabelled line): 13.92%
  SF36 PCS Component: m/n = # of responders/# of patients included: 108/263
  SF36 PCS Component: responder rate: (41.06%)
  SF36 PCS Component: responder rate difference from placebo (unlabelled line): 11.40%
  time-weighted average (AUC) of SF-36 PCS Scores, Difference from Placebo: 20.22
  time-weighted average (AUC) of SF-36 PCS Scores, LS Mean: 437.91
  time-weighted average (AUC) of SF-36 PCS Scores, Mean: 435.76
  time-weighted average (AUC) of SF-36 PCS Scores, Median: 432.8
100 mg
  Mean Change from Baseline in GHP SF-36 domain score: 6.0
  Mean Change from Baseline in PAIN SF-36 domain score: 15.9
  Mean Change from Baseline in PCS Score at Tx 15: 5.0
  Mean Change from Baseline in PFI SF-36 domain score: 6.8
  Mean Change from Baseline in ROLP SF-36 domain score: 13.7
200 mg (396), BOCF
  Composite Pain: number of responders: 98
  Composite Syndrome: number of responders: 55
  PGIC Component: number of responders: 129
  Pain Component: number of responders: 119
  SF36 PCS Component: number of responders: 89
200 mg (396), LOCF
  Composite Pain: number of responders: 117
  Composite Syndrome: number of responders: 65
  PGIC Component: number of responders: 151
  Pain Component: number of responders: 158
  SF36 PCS Component: number of responders: 109
200 mg, BOCF
  Composite Pain: responder rate: (24.75%)
  Composite Pain: responder rate difference from placebo (unlabelled line): 8.29%
  Composite Syndrome: responder rate: (13.89%)
  Composite Syndrome: responder rate difference from placebo (unlabelled line): 5.16%
  PGIC Component: responder rate: (32.58%)
  PGIC Component: responder rate difference from placebo (unlabelled line): 9.64%
  Pain Component: responder rate: (30.05%)
  Pain Component: responder rate difference from placebo (unlabelled line): 4.86%
  SF36 PCS Component: responder rate: (22.47%)
  SF36 PCS Component: responder rate difference from placebo (unlabelled line): 1.02%
200 mg, LOCF
  Composite Pain: responder rate: (29.55%)
  Composite Pain: responder rate difference from placebo (unlabelled line): 11.35%
  Composite Syndrome: responder rate: (16.41%)
  Composite Syndrome: responder rate difference from placebo (unlabelled line): 6.68%
  PGIC Component: responder rate: (38.13%)
  PGIC Component: responder rate difference from placebo (unlabelled line): 13.19%
  Pain Component: responder rate: (39.90%)
  Pain Component: responder rate difference from placebo (unlabelled line): 11.22%
  SF36 PCS Component: responder rate: (27.53%)
  SF36 PCS Component: responder rate difference from placebo (unlabelled line): 2.09%
  time-weighted average (AUC) of SF-36 PCS Scores, Difference from Placebo: 8.36
  time-weighted average (AUC) of SF-36 PCS Scores, LS Mean: 420.38
  time-weighted average (AUC) of SF-36 PCS Scores, Mean: 418.97
  time-weighted average (AUC) of SF-36 PCS Scores, Median: 419.2
200 mg, OC
  Composite Pain: m/n = # of responders/# of patients included: 98/215
  Composite Pain: responder rate: (45.58%)
  Composite Pain: responder rate difference from placebo (unlabelled line): 20.39%
  Composite Syndrome: m/n = # of responders/# of patients included: 55/215
  Composite Syndrome: responder rate: (25.58%)
  Composite Syndrome: responder rate difference from placebo (unlabelled line): 12.22%
  PGIC Component: m/n = # of responders/# of patients included: 129/255
  PGIC Component: responder rate: (50.59%)
  PGIC Component: responder rate difference from placebo (unlabelled line): 18.76%
  Pain Component: m/n = # of responders/# of patients included: 119/217
  Pain Component: responder rate: (54.84%)
  Pain Component: responder rate difference from placebo (unlabelled line): 16.44%
  SF36 PCS Component: m/n = # of responders/# of patients included: 89/255
  SF36 PCS Component: responder rate: (34.90%)
  SF36 PCS Component: responder rate difference from placebo (unlabelled line): 5.24%
  time-weighted average (AUC) of SF-36 PCS Scores, Difference from Placebo: 11.17
  time-weighted average (AUC) of SF-36 PCS Scores, LS Mean: 429.46
  time-weighted average (AUC) of SF-36 PCS Scores, Mean: 428.24
  time-weighted average (AUC) of SF-36 PCS Scores, Median: 428.4
200 mg
  Mean Change from Baseline in GHP SF-36 domain score: 6.6
  Mean Change from Baseline in PAIN SF-36 domain score: 18.2
  Mean Change from Baseline in PCS Score at Tx 15: 3.9
  Mean Change from Baseline in PFI SF-36 domain score: 6.9
  Mean Change from Baseline in ROLP SF-36 domain score: 14.9

From patent US20080293820A1, “METHODS FOR IMPROVING PHYSICAL FUNCTION IN FIBROMYALGIA” (Cypress Bioscience, Inc., priority 2007, published 2008)
